This assay has as its target T1, human OX2R (Homo sapiens, UniProt O43614).
T1 construct: expressed in transfected cells; host or cells: Chinese hamster ovary (CHO) cells, kept under G418 selection
T1 sequence (O43614 1-444): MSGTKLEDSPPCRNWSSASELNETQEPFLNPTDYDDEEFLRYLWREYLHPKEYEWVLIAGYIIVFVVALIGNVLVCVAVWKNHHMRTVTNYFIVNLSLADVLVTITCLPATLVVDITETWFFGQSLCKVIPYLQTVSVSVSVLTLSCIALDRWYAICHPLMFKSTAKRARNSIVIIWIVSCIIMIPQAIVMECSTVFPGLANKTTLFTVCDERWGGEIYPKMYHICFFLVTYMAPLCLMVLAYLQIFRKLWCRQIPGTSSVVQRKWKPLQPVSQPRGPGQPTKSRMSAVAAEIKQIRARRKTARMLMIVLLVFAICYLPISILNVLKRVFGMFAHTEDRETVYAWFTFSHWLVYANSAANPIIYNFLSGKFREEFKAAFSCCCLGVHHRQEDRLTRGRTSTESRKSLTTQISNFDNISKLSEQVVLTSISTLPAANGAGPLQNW
Kind of assay: IPOne (IP-One) orexin receptor agonist assay in CHO cells expressing human OX2R. In kind it is cell-based. Particulars: for pEC50: CHO cells expressing human OX2R, IP-One detection, 2 hours incubation, four parameter logistic fit, read-out: OX2R Potency, EC50; for % max agonist effect (Emax): human OX2R, percentage of sample raw value/mean max effect (reference compound at 1 uM with 100% activity).

pEC50: −log10 of the molar value.

As a reminder, the pEC50 is the EC50 on a negative log10 scale, so that one unit is a factor of ten. Regarding `CS(=O)(=O)N[C@H]1CCN(c2cnc3oncc3c2)[C@H]1CO[C@H]1CC[C@@H](c2ccccc2)CC1` [Example 90, N-((2R,3S)-1-(isoxazolo[5,4-b]pyridin-5-yl)-2-((((CIS)-4-phenylcyclohexyl)oxy)methyl)pyrrolidin-3-yl)methanesulfonamide], the negative logarithm of the EC50 (pEC50) is 6.03 and the “% max agonist effect (Emax)” value was found to be 87.6%.
Regarding `CS(=O)(=O)N[C@H]1CCN(c2cnc3ccoc3c2)[C@H]1CO[C@H]1CC[C@@H](c2ccccc2)CC1` [Example 91, N-((2R,3S)-1-(furo[3,2-b]pyridin-6-yl)-2-((((CIS)-4-phenylcyclohexyl)oxy)methyl)pyrrolidin-3-yl)methanesulfonamide], the pEC50 is 6.10 and the “% max agonist effect (Emax)” value is on record as 99.0%.
`CS(=O)(=O)N[C@H]1CCN(c2cnc3occc3c2)[C@H]1CO[C@H]1CC[C@@H](c2ccccc2)CC1` [Example 92, N-((2R,3S)-1-(furo[2,3-b]pyridin-5-yl)-2-((((CIS)-4-phenylcyclohexyl)oxy)methyl)pyrrolidin-3-yl)methanesulfonamide]: the pEC50 was 6.49 and the “% max agonist effect (Emax)” value is listed as 100.2%.
`COC[C@@H]1C[C@H](NS(=O)(=O)N(C)C)[C@H](CO[C@H]2CC[C@@H](c3cccc(F)c3)CC2)N1c1cc(O)c(F)cn1` [Example 93, N′-((2R,3S,5S)-1-(5-fluoro-4-hydroxypyridin-2-yl)-2-((((CIS)-4-(3-fluorophenyl)cyclohexyl)oxy)methyl)-5-(methoxymethyl)pyrrolidin-3-yl)-N,N-dimethyl-sulfamide]: the pEC50 is 9.35 and the “% max agonist effect (Emax)” value stood at 101.9%.
As for `C[C@@H]1C[C@H](NS(=O)(=O)N(C)C)[C@H](CO[C@H]2CC[C@@H](c3cccc(F)c3)CC2)N1c1cc(O)c(F)cn1` [Example 94, N′-((2R,3S,5R)-1-(5-fluoro-4-hydroxypyridin-2-yl)-2-((((CIS)-4-(3-fluorophenyl)cyclohexyl)oxy)methyl)-5-methylpyrrolidin-3-yl)-N,N-dimethyl-sulfamide], the pEC50 is 9.52 and the “% max agonist effect (Emax)” value is 99.6%.
As for `C[C@@H]1C[C@H](NS(=O)(=O)N(C)C)[C@H](CO[C@H]2CC[C@@H](c3cccc(F)c3)CC2)N1c1cc(O)c(Cl)cn1` [Example 95, N′-((2R,3S,5R)-1-(5-chloro-4-hydroxypyridin-2-yl)-2-((((CIS)-4-(3-fluorophenyl)cyclohexyl)oxy)methyl)-5-methylpyrrolidin-3-yl)-N,N-dimethyl-sulfamide], the pEC50 is 9.64 and the “% max agonist effect (Emax)” value was determined as 100.5%.
With `CS(=O)(=O)N[C@H]1CCN(c2nccc(O)c2F)[C@H]1CO[C@H]1CC[C@@H](c2cccc(F)c2)CC1` [Example 96, N-((2R,3S)-1-(3-fluoro-4-hydroxypyridin-2-yl)-2-((((CIS)-4-(3-fluorophenyl)cyclohexyl)oxy)methyl)pyrrolidin-3-yl)methanesulfonamide], the pEC50 was 9.64 and the “% max agonist effect (Emax)” value is recorded as 101.6%.
For the compound `CS(=O)(=O)N[C@H]1CCN(c2cc(O)c(Cl)cn2)[C@H]1CO[C@H]1CC[C@@H](c2cccc(F)c2)CC1` [Example 97, N-((2R,3S)-1-(5-chloro-4-hydroxypyridin-2-yl)-2-((((CIS)-4-(3-fluorophenyl)cyclohexyl)oxy)methyl)pyrrolidin-3-yl)methanesulfonamide], the negative logarithm of the EC50 (pEC50) was 9.22 and the “% max agonist effect (Emax)” value came to 100.9%.
On to `CS(=O)(=O)N[C@H]1CCN(c2ncc(Cl)c(O)c2F)[C@H]1CO[C@H]1CC[C@@H](c2cccc(F)c2)CC1` [Example 98, N-((2R,3S)-1-(5-chloro-3-fluoro-4-hydroxypyridin-2-yl)-2-((((CIS)-4-(3-fluorophenyl)cyclohexyl)oxy)methyl)pyrrolidin-3-yl)methanesulfonamide], for which the pEC50 was 9.12 and the “% max agonist effect (Emax)” value came out at 101.4%.
As to `CS(=O)(=O)N[C@H]1CCN(c2cc(O)c(F)cn2)[C@H]1CO[C@H]1CC[C@@H](c2cccc(F)c2)CC1` [Example 99, N-((2R,3S)-1-(5-fluoro-4-hydroxypyridin-2-yl)-2-((((CIS)-4-(3-fluorophenyl)cyclohexyl)oxy)methyl)pyrrolidin-3-yl)methanesulfonamide], the pEC50 was 9.57 and the “% max agonist effect (Emax)” value is given as 101.2%.
`COc1c(F)cnc(N2CC[C@H](NS(C)(=O)=O)[C@@H]2CO[C@H]2CC[C@@H](c3cccc(F)c3)CC2)c1F` [Example 100, N-((2R,3S)-1-(3,5-difluoro-4-methoxypyridin-2-yl)-2-((((CIS)-4-(3-fluorophenyl)cyclohexyl)oxy)methyl)pyrrolidin-3-yl)methanesulfonamide]: the negative-log EC50 (pEC50) was 6.15 and the “% max agonist effect (Emax)” value came to 99.6%.
As for `CS(=O)(=O)N[C@H]1CCN(c2ncc(F)c(O)c2F)[C@H]1CO[C@H]1CC[C@@H](c2ccccc2)CC1` [Example 101, N-((2R,3S)-1-(3,5-difluoro-4-hydroxypyridin-2-yl)-2-((((CIS)-4-phenylcyclohexyl)oxy)methyl)pyrrolidin-3-yl)methanesulfonamide], the negative-log EC50 (pEC50) is 8.70 and the “% max agonist effect (Emax)” value came out at 100.5%.
On the same counts, the results for `CS(=O)(=O)N[C@H]1CCN(c2ncc(CO)s2)[C@H]1CO[C@H]1CC[C@@H](c2ccccc2)CC1` [Example 102, N-((2R,3S)-1-(5-(hydroxymethyl)thiazol-2-yl)-2-((((CIS)-4-phenylcyclohexyl)oxy)methyl)pyrrolidin-3-yl)methanesulfonamide] are 5.32 and 67.4%.
As to `COC(=O)c1csc(N2CC[C@H](NS(C)(=O)=O)[C@@H]2CO[C@H]2CC[C@@H](c3ccccc3)CC2)n1` [Example 103, methyl 2-((2R,3S)-3-(methylsulfonamido)-2-((((CIS)-4-phenylcyclohexyl)oxy)methyl)pyrrolidin-1-yl)thiazole-4-carboxylate], the negative logarithm of the EC50 (pEC50) is 5.92 and the “% max agonist effect (Emax)” value is recorded as 93%.
On to `COC(=O)c1cnc(N2CC[C@H](NS(C)(=O)=O)[C@@H]2CO[C@H]2CC[C@@H](c3ccccc3)CC2)s1` [Example 104, methyl 2-((2R,3S)-3-(methylsulfonamido)-2-((((CIS)-4-phenylcyclohexyl)oxy)methyl)pyrrolidin-1-yl)thiazole-5-carboxylate], for which the pEC50 is 5.93 and the “% max agonist effect (Emax)” value is reported as 100%.
On the same counts, the results for `Cc1sc(N2CC[C@H](NS(C)(=O)=O)[C@@H]2CO[C@H]2CC[C@@H](c3ccccc3)CC2)nc1O` [Example 105, N-((2R,3S)-1-(4-hydroxy-5-methylthiazol-2-yl)-2-((((CIS)-4-phenylcyclohexyl)oxy)methyl)pyrrolidin-3-yl)methanesulfonamide] are 6.15 and 97.9%.
Turning to `Cc1sc(N2CC[C@H](NS(C)(=O)=O)[C@@H]2CO[C@H]2CC[C@@H](c3ccccc3)CC2)nc1Br` [Example 106, N-((2R,3S)-1-(4-bromo-5-methylthiazol-2-yl)-2-((((CIS)-4-phenylcyclohexyl)oxy)methyl)pyrrolidin-3-yl)methanesulfonamide], the negative-log EC50 (pEC50) is 5.77 and the “% max agonist effect (Emax)” value is 98.0%.
On to `CS(=O)(=O)N[C@H]1CCN(c2nc(O)cs2)[C@H]1CO[C@H]1CC[C@@H](c2ccccc2)CC1` [Example 107, N-((2R,3S)-1-(4-hydroxythiazol-2-yl)-2-((((CIS)-4-phenylcyclohexyl)oxy)methyl)pyrrolidin-3-yl)methanesulfonamide], for which the negative-log EC50 (pEC50) was 6.17 and the “% max agonist effect (Emax)” value amounted to 97.2%.
In the case of `CS(=O)(=O)N[C@H]1CCN(c2nc(Br)cs2)[C@H]1CO[C@H]1CC[C@@H](c2ccccc2)CC1` [Example 108, N-((2R,3S)-1-(4-bromothiazol-2-yl)-2-((((CIS)-4-phenylcyclohexyl)oxy)methyl)pyrrolidin-3-yl)methanesulfonamide], the negative logarithm of the EC50 (pEC50) was 5.95 and the “% max agonist effect (Emax)” value came to 97.4%.
As to `Cc1nc(N2CC[C@H](NS(C)(=O)=O)[C@@H]2CO[C@H]2CC[C@@H](c3ccccc3)CC2)cs1` [Example 109, N-((2R,3S)-1-(2-methylthiazol-4-yl)-2-((((CIS)-4-phenylcyclohexyl)oxy)methyl)pyrrolidin-3-yl)methanesulfonamide], the negative logarithm of the EC50 (pEC50) was 6.85 and the “% max agonist effect (Emax)” value is listed as 97.7%.
On to `CS(=O)(=O)N[C@H]1CCN(c2cscn2)[C@H]1CO[C@H]1CC[C@@H](c2ccccc2)CC1` [Example 110, N-((2R,3S)-2-((((CIS)-4-phenylcyclohexyl)oxy)methyl)-1-(thiazol-4-yl)pyrrolidin-3-yl)methanesulfonamide], for which the pEC50 was 7.75 and the “% max agonist effect (Emax)” value was found to be 102%.
For `Cn1cccc(N2CC[C@H](NS(C)(=O)=O)[C@@H]2CO[C@H]2CC[C@@H](c3ccccc3)CC2)c1=O` [Example 111, N-((2R,3S)-1-(1-methyl-2-oxo-1,2-dihydropyridin-3-yl)-2-((((CIS)-4-phenylcyclohexyl)oxy)methyl)pyrrolidin-3-yl)methanesulfonamide], the pEC50 was 6.97 and the “% max agonist effect (Emax)” value was found to be 100%.

For the origin of these results see patent US12312332B2 (Merck Sharp & Dohme LLC., priority 2019, dated 2025).
